Experimental data: ChEMBL document CHEMBL2413072, “Synthesis and in vitro anticancer studies of novel C-2 arylidene congeners of lantadenes” (2013)

Tests used:
Type in all cases: functional
[1] = tested on: UACC-257; assay: Growth inhibition of human UACC257 cells assessed as cell growth at 10 uM by sulforhodamine B assay; conditions: read-out: Activity
[2] = tested on: 786-0; assay: Growth inhibition of human 786-0 cells assessed as cell growth at 10 uM by sulforhodamine B assay; conditions: read-out: Activity
[3] = tested on: T47D; assay: Growth inhibition of human T47D cells assessed as growth inhibition at 10 uM by sulforhodamine B assay; conditions: read-out: GI
[4] = tested on: SK-MEL-2; assay: Growth inhibition of human SK-MEL-2 cells assessed as growth inhibition at 10 uM by sulforhodamine B assay; conditions: read-out: GI
[5] = tested on: SNB-75; assay: Growth inhibition of human SNB75 cells assessed as cell growth at 10 uM by sulforhodamine B assay; conditions: read-out: Activity
[6] = tested on: SK-MEL-5; assay: Growth inhibition of human SK-MEL-5 cells assessed as growth inhibition at 10 uM by sulforhodamine B assay; conditions: read-out: GI
[7] = Growth inhibition of human NCI-ADR-RES cells assessed as growth inhibition at 10 uM by sulforhodamine B assay; conditions: read-out: GI
[8] = tested on: HCT-116; assay: Growth inhibition of human HCT116 cells assessed as cell growth at 10 uM by sulforhodamine B assay; conditions: read-out: Activity
[9] = tested on: COLO 205; assay: Growth inhibition of human COLO205 cells assessed as growth inhibition at 10 uM by sulforhodamine B assay; conditions: read-out: GI
[10] = tested on: OVCAR-8; assay: Growth inhibition of human OVCAR8 cells assessed as growth inhibition at 10 uM by sulforhodamine B assay; conditions: read-out: GI
[11] = tested on: UO-31; assay: Growth inhibition of human UO31 cells assessed as cell growth at 10 uM by sulforhodamine B assay; conditions: read-out: Activity
[12] = tested on: SR; assay: Growth inhibition of human SR cells assessed as cell growth at 10 uM by sulforhodamine B assay; conditions: read-out: Activity
[13] = tested on: OVCAR-4; assay: Growth inhibition of human OVCAR4 cells assessed as cell growth at 10 uM by sulforhodamine B assay; conditions: read-out: Activity
[14] = tested on: RXF 393; assay: Growth inhibition of human RXF393 cells assessed as cell growth at 10 uM by sulforhodamine B assay; conditions: read-out: Activity
[15] = tested on: U-251; assay: Growth inhibition of human U251 cells assessed as growth inhibition at 10 uM by sulforhodamine B assay; conditions: read-out: GI
[16] = tested on: PC-3; assay: Growth inhibition of human PC3 cells assessed as cell growth at 10 uM by sulforhodamine B assay; conditions: read-out: Activity
[17] = tested on: SNB-19; assay: Growth inhibition of human SNB19 cells assessed as growth inhibition at 10 uM by sulforhodamine B assay; conditions: read-out: GI
[18] = tested on: DU-145; assay: Growth inhibition of human DU145 cells assessed as cell growth at 10 uM by sulforhodamine B assay; conditions: read-out: Activity
[19] = tested on: NCI-H460; assay: Growth inhibition of human NCI-H460 cells assessed as cell growth at 10 uM by sulforhodamine B assay; conditions: read-out: Activity
[20] = tested on: NCI-H322M; assay: Growth inhibition of human NCI-H322M cells assessed as cell growth at 10 uM by sulforhodamine B assay; conditions: read-out: Activity
[21] = Growth inhibition of human Hs 578T cells assessed as cell growth at 10 uM by sulforhodamine B assay; conditions: read-out: Activity
[22] = tested on: ACHN; assay: Growth inhibition of human ACHN cells assessed as growth inhibition at 10 uM by sulforhodamine B assay; conditions: read-out: GI
[23] = tested on: HT-29; assay: Growth inhibition of human HT-29 cells assessed as growth inhibition at 10 uM by sulforhodamine B assay; conditions: read-out: GI
[24] = Growth inhibition of human Hs 578T cells assessed as growth inhibition at 10 uM by sulforhodamine B assay; conditions: read-out: GI
[25] = Growth inhibition of human HCC2998 cells assessed as growth inhibition at 10 uM by sulforhodamine B assay; conditions: HCC 2998, read-out: GI
[26] = tested on: HL-60(TB); assay: Growth inhibition of human HL-60(TB) cells assessed as growth inhibition at 10 uM by sulforhodamine B assay; conditions: read-out: GI
[27] = tested on: HOP-62; assay: Growth inhibition of human HOP62 cells assessed as cell growth at 10 uM by sulforhodamine B assay; conditions: read-out: Activity
[28] = tested on: OVCAR-5; assay: Growth inhibition of human OVCAR5 cells assessed as growth inhibition at 10 uM by sulforhodamine B assay; conditions: read-out: GI
[29] = tested on: K562; assay: Growth inhibition of human K562 cells assessed as growth inhibition at 10 uM by sulforhodamine B assay; conditions: read-out: GI
[30] = tested on: HCT-15; assay: Growth inhibition of human HCT15 cells assessed as growth inhibition at 10 uM by sulforhodamine B assay; conditions: read-out: GI
[31] = tested on: LOX IMVI; assay: Growth inhibition of human LOXIMVI cells assessed as growth inhibition at 10 uM by sulforhodamine B assay; conditions: read-out: GI
[32] = tested on: SNB-75; assay: Growth inhibition of human SNB75 cells assessed as growth inhibition at 10 uM by sulforhodamine B assay; conditions: read-out: GI
[33] = tested on: SF-295; assay: Growth inhibition of human SF295 cells assessed as growth inhibition at 10 uM by sulforhodamine B assay; conditions: read-out: GI
[34] = tested on: CCRF-CEM; assay: Growth inhibition of human CCRF-CEM cells assessed as cell growth at 10 uM by sulforhodamine B assay; conditions: read-out: Activity
[35] = tested on: RXF 393; assay: Growth inhibition of human RXF393 cells assessed as growth inhibition at 10 uM by sulforhodamine B assay; conditions: read-out: GI
[36] = tested on: BT-549; assay: Growth inhibition of human BT549 cells assessed as growth inhibition at 10 uM by sulforhodamine B assay; conditions: read-out: GI
[37] = tested on: A549; assay: Growth inhibition of human A549/ATCC cells assessed as growth inhibition at 10 uM by sulforhodamine B assay; conditions: read-out: GI
[38] = tested on: MDA-MB-231; assay: Growth inhibition of human MDA-MB-231 cells assessed as growth inhibition at 10 uM by sulforhodamine B assay; conditions: read-out: GI
[39] = tested on: PC-3; assay: Growth inhibition of human PC3 cells assessed as growth inhibition at 10 uM by sulforhodamine B assay; conditions: read-out: GI
[40] = tested on: A498; assay: Growth inhibition of human A498 cells assessed as cell growth at 10 uM by sulforhodamine B assay; conditions: read-out: Activity
[41] = tested on: CAKI-1; assay: Growth inhibition of human CAKI-1 cells assessed as cell growth at 10 uM by sulforhodamine B assay; conditions: read-out: Activity
[42] = tested on: MDA-MB-468; assay: Growth inhibition of human MDA-MB-468 cells assessed as growth inhibition at 10 uM by sulforhodamine B assay; conditions: read-out: GI
[43] = tested on: LOX IMVI; assay: Growth inhibition of human LOXIMVI cells assessed as cell growth at 10 uM by sulforhodamine B assay; conditions: read-out: Activity
[44] = tested on: SR; assay: Growth inhibition of human SR cells assessed as growth inhibition at 10 uM by sulforhodamine B assay; conditions: read-out: GI
[45] = tested on: OVCAR-4; assay: Growth inhibition of human OVCAR4 cells assessed as growth inhibition at 10 uM by sulforhodamine B assay; conditions: read-out: GI
[46] = tested on: SF-295; assay: Growth inhibition of human SF295 cells assessed as cell growth at 10 uM by sulforhodamine B assay; conditions: read-out: Activity
[47] = tested on: A549; assay: Growth inhibition of human A549/ATCC cells assessed as cell growth at 10 uM by sulforhodamine B assay; conditions: read-out: Activity
[48] = tested on: HCT-116; assay: Growth inhibition of human HCT116 cells assessed as growth inhibition at 10 uM by sulforhodamine B assay; conditions: read-out: GI
[49] = tested on: MDA-MB-468; assay: Growth inhibition of human MDA-MB-468 cells assessed as cell growth at 10 uM by sulforhodamine B assay; conditions: read-out: Activity

SMILES: CC1(C)C[C@@H](O)[C@]2(C(=O)O)CC[C@]3(C)C(=CC[C@@H]4[C@@]5(C)CCC(=O)C(C)(C)[C@@H]5CC[C@]43C)[C@@H]2C1
- growth at 10 µM [1]: 91.2%
- growth at 10 µM [2]: 86.2%
- inhibition of growth at 10 µM [3]: 19.2%
- inhibition of growth at 10 µM [4]: < 10%
- growth at 10 µM [5]: 101%
- inhibition of growth at 10 µM [6]: 12.2%
- inhibition of growth at 10 µM [7]: < 10%
- growth at 10 µM [8]: 78.8%
- inhibition of growth at 10 µM [9]: < 10%
- inhibition of growth at 10 µM [10]: 19.2%
- growth at 10 µM [11]: 86.1%
- growth at 10 µM [12]: 83.7%
- growth at 10 µM [13]: 85.9%
- growth at 10 µM [14]: 112%
- inhibition of growth at 10 µM [15]: 10.8%
- growth at 10 µM [16]: 59.3%
- inhibition of growth at 10 µM [17]: < 10%
- growth at 10 µM [18]: 113%
- growth at 10 µM [19]: 94.7%
- growth at 10 µM [20]: 97.5%
- growth at 10 µM [21]: 99.3%
- inhibition of growth at 10 µM [22]: < 10%
- inhibition of growth at 10 µM [23]: 16.8%
- inhibition of growth at 10 µM [24]: < 10%
- inhibition of growth at 10 µM [25]: < 10%
- inhibition of growth at 10 µM [26]: 24.8%
- growth at 10 µM [27]: 88.7%
- inhibition of growth at 10 µM [28]: < 10%
- inhibition of growth at 10 µM [29]: 23.2%
- inhibition of growth at 10 µM [30]: 24.6%
- inhibition of growth at 10 µM [31]: < 10%
- inhibition of growth at 10 µM [32]: < 10%
- inhibition of growth at 10 µM [33]: 19.3%
- growth at 10 µM [34]: 87.5%
- inhibition of growth at 10 µM [35]: < 10%
- inhibition of growth at 10 µM [36]: 10.1%
- inhibition of growth at 10 µM [37]: 21%
- inhibition of growth at 10 µM [38]: < 10%
- inhibition of growth at 10 µM [39]: 40.7%
- growth at 10 µM [40]: 91.2%
- growth at 10 µM [41]: 84.8%
- inhibition of growth at 10 µM [42]: < 10%
- growth at 10 µM [43]: 93.2%
- inhibition of growth at 10 µM [44]: 16.3%
- inhibition of growth at 10 µM [45]: 14.1%
- growth at 10 µM [46]: 80.7%
- growth at 10 µM [47]: 79%
- inhibition of growth at 10 µM [48]: 21.2%
- growth at 10 µM [49]: 96.2%
